Structures are written as SMILES.

These results are taken from patent US20240115540A1, “METHODS FOR PROVIDING HEALTH BENEFITS IN ANIMALS” (Société des Produits Nestlé S.A., priority 2022, published 2024).

This assay has as its system db/db mice. As to the kind of experiment: CKD mice study: db/db mice fed test diets for 8 weeks (glomerular hyperfiltration, glycogen storage, kidney histology). The class given is in vivo. Here is the method:
The present study used db/db mice at 8 weeks of age for 8 weeks of intervention. The mice were divided into 4 groups of 9-10 mice administered with different blends (the Control group was administered with standard AIN-93M diet, the Dapa Group was administered standard AIN-93M augmented with dapagliflozin at 10 mg/kg, the RPB group was administered a standard diet augmented with a renal protection blend, the RPB+ group was administered a standard diet augmented with a renal protection blend that included medium chain triglycerides); the diets are shown in Table 1. The blends were administered to study glomerular hyperfiltration and glycogen storage in tissues. Final weekly food intake, final body weight, final blood glucose level, final lean body mass, and final fat mass of the groups is presented in Table 2. Also presented in table 2 were GFR progression, urine albumin/creatine ratio, urine protein/creatinine ratio, glomerulosclerosis score, Periodic acid-Schiff (PAS) staining scores for distal convoluted tubule (DCT) lumen, PAS staining scores for intranuclear inclusions distal tubules, and PAS staining scores for cytoplamis aggregates distal tubules.
In addition to the measurements of Table 2, the mice were measured for hyalinosis on a scoring system of no hyalinosis, intermediate hyalinosis, or severe hyalinosis, where hyalinosis refers to the thickening of the walls of the glomerular arterioles by the deposits of homogenous hyaline material. […] The control group had 1 mouse with no hyalinosis, 4 mice with intermediate hyalinosis, and 4 with significant hyalinosis; the dapa group had 2 mice with no hyalinosis, 5 mice with intermediate hyalinosis, and 2 mice with significant hyalinosis, the RPB group had 5 mice with no hyalinosis, 4 mice with intermediate hyalinosis, and 1 mouse with significant hyalinosis, and the RPB+ group had 2 mice with no hyalinosis and 8 mice with intermediate hyalinosis.

The mark [1] stands for this setting: glomerular arterioles, groups of 9-10.
Setting [2] is: kidney tissue, 8 weeks of intervention.

`CCOc1ccc(Cc2cc([C@@H]3O[C@H](CO)[C@@H](O)[C@H](O)[C@H]3O)ccc2Cl)cc1` [Dapa, dapagliflozin] registered a GFR progression (8 weeks of intervention) of 0.01 mL/min. For the setting “after 8 weeks of intervention”, the “Blood glucose (final)” value came out at 464.78 mg/dL, the “Fat mass (final)” value worked out at 23.99 g and the “Lean mass (final lean body mass)” value is 15.31 g. Also, under setting [1], the “number of mice with intermediate hyalinosis” value is on record as 5 mice, the “number of mice with no hyalinosis” value is given as 2 mice and the “number of mice with significant (severe) hyalinosis” value is recorded as 2 mice. Besides, under setting [2], the Glomerulosclerosis score is given as 1.83; the “PAS DCT lumen (PAS staining score, distal convoluted tubule lumen)” value is 1.44; the “PAS cytoplasmic aggregates DT (PAS staining score, distal tubules)” value came to 1.78; the “PAS intranuclear inclusions DT (PAS staining score, distal tubules)” value was 2.11. Under “urine, 8 weeks of intervention”, the Albumin/Creatinine ratio was 181.54 and the Protein/Creatinine ratio came out at 36.92.
